From publication PMC5569891 (Chembiochem : a European journal of chemical biology, 2017)

Target: T1, HsSQS (Homo sapiens, UniProt P37268)
T1 sequence (P37268 1-417): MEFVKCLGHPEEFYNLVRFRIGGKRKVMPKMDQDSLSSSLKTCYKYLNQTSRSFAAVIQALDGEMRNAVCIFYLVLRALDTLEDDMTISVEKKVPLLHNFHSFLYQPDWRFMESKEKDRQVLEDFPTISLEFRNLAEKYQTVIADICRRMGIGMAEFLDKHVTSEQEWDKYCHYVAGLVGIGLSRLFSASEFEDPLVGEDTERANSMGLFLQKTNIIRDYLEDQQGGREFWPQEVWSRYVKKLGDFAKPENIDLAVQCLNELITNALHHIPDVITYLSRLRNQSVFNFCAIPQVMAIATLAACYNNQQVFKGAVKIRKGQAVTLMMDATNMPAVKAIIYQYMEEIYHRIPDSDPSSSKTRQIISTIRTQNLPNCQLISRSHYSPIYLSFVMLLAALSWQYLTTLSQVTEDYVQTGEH
Test: LC-MS of products
Type: biochemical
Details: no NADPH

CC(C)=CCC/C(C)=C/CC/C(C)=C/COP(=O)(O)OP(=O)(O)O [compound 1, farnesyl diphosphate]
LC-MS of products (PSPP): LC-MS traces showing reaction products of NmHpnD+FPP (in blue) and HsSQS+FPP (in red)
